Measurements from patent US20020031795A1, “Nitrocoumarins for detecting all micro-organisms” (priority 1998, published 2002).

Experiments:
[1] = system: E. coli (NCTC strain 10418); test: Fluorescent signal generated by E. coli reducing nitrocoumarins (nitroaryl reductase activity); type: cell-based, Escherichia coli
Method: A sample of the 7-nitrocoumarin derivative is dissolved in 4 ml of hot, distilled water. The mass dissolved to make the stock solution is such that the final concentration of the compound in the assay is 0.105 mmol/l. This solution is added to 96 ml of Mueller-Hinton broth and the mixture is sterile-filtered.
(§1) The E. coli was grown for 24 hours at 35° C. on Columbia agar supplemented with sheep blood. The bacteria were then resuspended in sterile, distilled water and their density was adjusted to 0.5 on the MacFarland scale (i.e. about 10^8 cells/ml). This suspension was then diluted 100-fold in sterile Mueller-Hinton broth (i.e. to a final density of about 10^6 cells/ml).
(§2) Fifty microliters of each nitrocoumarin solution plus 50 μl of bacterial suspension were then added to the wells of a microtiter plate. The plates were incubated at 35° C. and the optical density and fluorescence of each well was read every 30 min for a total of 4 hours. Optical density (690 nm) readings were made using an Anthos 2001 spectrophotometer (Labtech International Limited), and fluorescence (excitation at 365 nm and emission at 440 nm) readings were made on a Biolite F1 2001 fluorometer (Labtech International Limited).
The effect of the concentration of 7-nitrocoumarin-3-carboxylic acid on the sensitivity of the assay to detect E. coli (NCTC strain 10418) was investigated at concentrations of the indicator ranging from 0 to 0.262 mmol/l. All other conditions were identical to those described in section A above.

Enterobacter agglomerans = test: Reduction of the indicator by wild Enterobacteriaceae strain (fluorescence); type: cell-based; details: 0.17 mmol/l
Method: as §1, §2
(§3) This experiment was designed to investigate whether or not it would be possible to detect Enterobacteriaceae other than E. coli using 7-nitrocoumarin-3-carboxylic acid. The conditions for this experiment were similar to those described for the first experiment (section A).
(§4) Five wild strains belonging to the species Citrobacter diversus, Enterobacter agglomerans, Hafnia alvei, Morganella morganii and Shigella sonnei were tested

Hafnia alvei = test: as above; type: cell-based; details: 0.17 mmol/l
Method: as §1, §2, §3, §4

Morganella morganii = test: as above; type: cell-based; details: 0.17 mmol/l
Method: as §1, §2, §3, §4

Shigella sonnei = test: as above; type: cell-based; details: 0.17 mmol/l
Method: as §1, §2, §3, §4

[2] = system: five different species of Enterobacteriaceae; test: Reduction by wild strains of five species of Enterobacteriaceae (summary); type: cell-based; details: 0.17 mmol/l
Method: as §3, §4

Structure (SMILES): O=C(O)c1cc2ccc([N+](=O)[O-])cc2oc1=O [7-nitrocoumarin-3-carboxylic acid]
- Fluorescent signal ([1]; 0.005 mmol/l, 0 min): 0
- Fluorescent signal ([1]; 0.005 mmol/l, 30 min): −134
- Fluorescent signal ([1]; 0.005 mmol/l, 60 min): −164
- Fluorescent signal ([1]; 0.005 mmol/l, 90 min): −122
- Fluorescent signal ([1]; 0.005 mmol/l, 120 min): −94
- Fluorescent signal ([1]; 0.005 mmol/l, 150 min): −9
- Fluorescent signal ([1]; 0.005 mmol/l, 180 min): 406
- Fluorescent signal ([1]; 0.005 mmol/l, 210 min): 1307
- Fluorescent signal ([1]; 0.005 mmol/l, 240 min): 2466
- Fluorescent signal ([1]; 0.013 mmol/l, 0 min): 0
- Fluorescent signal ([1]; 0.013 mmol/l, 30 min): −113
- Fluorescent signal ([1]; 0.013 mmol/l, 60 min): −141
- Fluorescent signal ([1]; 0.013 mmol/l, 90 min): −76
- Fluorescent signal ([1]; 0.013 mmol/l, 120 min): −22
- Fluorescent signal ([1]; 0.013 mmol/l, 150 min): 174
- Fluorescent signal ([1]; 0.013 mmol/l, 180 min): 1068
- Fluorescent signal ([1]; 0.013 mmol/l, 210 min): 3073
- Fluorescent signal ([1]; 0.013 mmol/l, 240 min): 5902
- Fluorescent signal ([1]; 0.026 mmol/l, 0 min): 0
- Fluorescent signal ([1]; 0.026 mmol/l, 30 min): −91
- Fluorescent signal ([1]; 0.026 mmol/l, 60 min): −110
- Fluorescent signal ([1]; 0.026 mmol/l, 90 min): −39
- Fluorescent signal ([1]; 0.026 mmol/l, 120 min): 71
- Fluorescent signal ([1]; 0.026 mmol/l, 150 min): 467
- Fluorescent signal ([1]; 0.026 mmol/l, 180 min): 2311
- Fluorescent signal ([1]; 0.026 mmol/l, 210 min): 6028
- Fluorescent signal ([1]; 0.026 mmol/l, 240 min): 11387
- Fluorescent signal ([1]; 0.052 mmol/l, 0 min): 0
- Fluorescent signal ([1]; 0.052 mmol/l, 30 min): −83
- Fluorescent signal ([1]; 0.052 mmol/l, 60 min): −76
- Fluorescent signal ([1]; 0.052 mmol/l, 90 min): 33
- Fluorescent signal ([1]; 0.052 mmol/l, 120 min): 241
- Fluorescent signal ([1]; 0.052 mmol/l, 150 min): 861
- Fluorescent signal ([1]; 0.052 mmol/l, 180 min): 4004
- Fluorescent signal ([1]; 0.052 mmol/l, 210 min): 10584
- Fluorescent signal ([1]; 0.052 mmol/l, 240 min): 19530
- Fluorescent signal relative to that given by any of the other substrates ([1]; 0.105 mmol/l): more than twice as high
- Fluorescent signal ([1]; 0.105 mmol/l, 0 min): 0
- Fluorescent signal ([1]; 0.105 mmol/l, 30 min): −67
- Fluorescent signal ([1]; 0.105 mmol/l, 60 min): 4
- Fluorescent signal ([1]; 0.105 mmol/l, 90 min): 181
- Fluorescent signal ([1]; 0.105 mmol/l, 120 min): 586
- Fluorescent signal ([1]; 0.105 mmol/l, 150 min): 1694
- Fluorescent signal ([1]; 0.105 mmol/l, 180 min): 6724
- Fluorescent signal ([1]; 0.105 mmol/l, 210 min): 17495
- Fluorescent signal ([1]; 0.105 mmol/l, 240 min): 31314
- Extent of reduction of the substrate (in words) ([1]; 0.105 mmol/l, end of the four-hour assay): reduced to a far greater extent than any of the other nitrocoumarins
- Fluorescent signal ([1]; 0.157 mmol/l, 0 min): 0
- Fluorescent signal ([1]; 0.157 mmol/l, 30 min): −74
- Fluorescent signal ([1]; 0.157 mmol/l, 60 min): 48
- Fluorescent signal ([1]; 0.157 mmol/l, 90 min): 280
- Fluorescent signal ([1]; 0.157 mmol/l, 120 min): 811
- Fluorescent signal ([1]; 0.157 mmol/l, 150 min): 2231
- Fluorescent signal ([1]; 0.157 mmol/l, 180 min): 8264
- Fluorescent signal ([1]; 0.157 mmol/l, 210 min): 21022
- Fluorescent signal ([1]; 0.157 mmol/l, 240 min): 36517
- Fluorescent signal ([1]; 0.210 mmol/l, 0 min): 0
- Fluorescent signal ([1]; 0.210 mmol/l, 30 min): −6
- Fluorescent signal ([1]; 0.210 mmol/l, 60 min): 88
- Fluorescent signal ([1]; 0.210 mmol/l, 90 min): 354
- Fluorescent signal ([1]; 0.210 mmol/l, 120 min): 979
- Fluorescent signal ([1]; 0.210 mmol/l, 150 min): 2588
- Fluorescent signal ([1]; 0.210 mmol/l, 180 min): 9000
- Fluorescent signal ([1]; 0.210 mmol/l, 210 min): 21589
- Fluorescent signal ([1]; 0.210 mmol/l, 240 min): 37823
- Fluorescent signal ([1]; 0.262 mmol/l, 0 min): 0
- Fluorescent signal ([1]; 0.262 mmol/l, 30 min): 3
- Fluorescent signal ([1]; 0.262 mmol/l, 60 min): 131
- Fluorescent signal ([1]; 0.262 mmol/l, 90 min): 446
- Fluorescent signal ([1]; 0.262 mmol/l, 120 min): 1190
- Fluorescent signal ([1]; 0.262 mmol/l, 150 min): 3037
- Fluorescent signal ([1]; 0.262 mmol/l, 180 min): 9721
- Fluorescent signal ([1]; 0.262 mmol/l, 210 min): 22066
- Fluorescent signal ([1]; 0.262 mmol/l, 240 min): 37949
- Fluorescent signal (Enterobacter agglomerans; 0 min): 0
- Fluorescent signal (Enterobacter agglomerans; 30 min): −15
- Fluorescent signal (Enterobacter agglomerans; 60 min): −3
- Fluorescent signal (Enterobacter agglomerans; 90 min): 9
- Fluorescent signal (Enterobacter agglomerans; 120 min): 74
- Fluorescent signal (Enterobacter agglomerans; 150 min): 199
- Fluorescent signal (Enterobacter agglomerans; 180 min): 501
- Fluorescent signal (Enterobacter agglomerans; 210 min): 1246
- Fluorescent signal (Enterobacter agglomerans; 240 min): 4099
- Fluorescent signal (Hafnia alvei; 0 min): 0
- Fluorescent signal (Hafnia alvei; 30 min): −24
- Fluorescent signal (Hafnia alvei; 60 min): −30
- Fluorescent signal (Hafnia alvei; 90 min): 0
- Fluorescent signal (Hafnia alvei; 120 min): 40
- Fluorescent signal (Hafnia alvei; 150 min): 122
- Fluorescent signal (Hafnia alvei; 180 min): 260
- Fluorescent signal (Hafnia alvei; 210 min): 775
- Fluorescent signal (Hafnia alvei; 240 min): 2048
- Fluorescent signal (Morganella morganii; 0 min): 0
- Fluorescent signal (Morganella morganii; 30 min): −42
- Fluorescent signal (Morganella morganii; 60 min): −24
- Fluorescent signal (Morganella morganii; 90 min): −15
- Fluorescent signal (Morganella morganii; 120 min): 31
- Fluorescent signal (Morganella morganii; 150 min): 95
- Fluorescent signal (Morganella morganii; 180 min): 403
- Fluorescent signal (Morganella morganii; 210 min): 2170
- Fluorescent signal (Morganella morganii; 240 min): 8128
- Fluorescent signal (Shigella sonnei; 0 min): 0
- Fluorescent signal (Shigella sonnei; 30 min): −9
- Fluorescent signal (Shigella sonnei; 60 min): 15
- Fluorescent signal (Shigella sonnei; 90 min): 52
- Fluorescent signal (Shigella sonnei; 120 min): 162
- Fluorescent signal (Shigella sonnei; 150 min): 434
- Fluorescent signal (Shigella sonnei; 180 min): 1108
- Fluorescent signal (Shigella sonnei; 210 min): 3095
- Fluorescent signal (Shigella sonnei; 240 min): 8567
- Reduction by wild strains of five Enterobacteriaceae species (in words) [2]: All the strains tested were found to be able to reduce this compound
